Data from patent US20250288587A1, “Methods of Treating Fibrosis” (Athira Pharma, Inc., priority 2022, published 2025).

Assays:
CFA-stimulated rats [1] = assay: CFA inflammatory pain model, mechanical allodynia (von Frey test); format: in vivo; design: key to Mechanical Allodynia, change in sensitivity compared to CFA alone / Mechanical Allodynia, significant reduction in pain behavior vs CFA alone: NS = no statistically significant change in sensitivity compared to CFA alone; + = statistically significant change in sensitivity compared to CFA alone, p < 0.05
Procedure: (§1) Response to peripheral inflammatory stimulus can be modeled by administering complete Freund's adjuvant (CFA), a suspension of desiccated mycobacterium in paraffin oil and mannide monooleate, by subcutaneous injection into the rat's footpad. The introduction of CFA to peripheral tissues leads to a rapid, sustained, inflammatory reaction in the treated tissue within 24 hours. Subcutaneous administration of CFA in the plantar region of the paw induces inflammatory pain behaviors that persist for at least 8 days. CFA treatment also leads to the accumulation of inflammatory cytokines in paw tissue at the site of injury, which, if unresolved, can lead to formation of fibrotic tissue. The extent of inflammatory response to CFA can be assessed by quantification of inflammatory cytokines in paw skin lysate, and inflammatory pain behaviors by mechanical allodynia (von Frey test) and thermal hyperalgesia (Hargreaves test).
(§2) In one study, Compound 2a was tested for its ability to reduce inflammatory pain behaviors in the CFA inflammation model. On study day 0, […] of CFA was administered subcutaneously in the plantar of the right hind paw. Animals were treated daily with Compound 2a in solution via oral gavage (PO) at doses of 1, 0.1, and 0.025 mg/kg. Treatment began before CFA injection on study day −1 and continued through study day 8.
Mechanical allodynia was measured using the von Frey test. In this test, rats were placed on a wire mesh and a series of filaments designed to deliver probing force ranging from 4 to 26 grams were applied to the mid-plantar surface of the right hind paw. Animals indicated pain response by lifting the probed paw. The minimal force required to elicit the withdrawal response was recorded as the paw withdrawal threshold (PWT). Von Frey testing was performed 1 hour after Compound 2a dosing on study day 1, 3, and 7, and was also tested pre-dosing on day 7. Statistical analysis was performed using a 1-way ANOVA with Tukey post-test. A p-value below 0.05 was considered statistically significant. Control animals stimulated with CFA but treated with only vehicle had high sensitivity to mechanical stimulation compared to normal control animals.
(§3) In another study, Compounds 1a, 5a, and 6a were similarly tested against CFA-induced inflammatory stimulation in the right hind foot for their ability to reduce pain behaviors. This study also included quantification of inflammatory cytokine expression in paw skin lysate. Inflammatory pain stimulation with CFA injection and assessment of mechanical and thermal pain behaviors were performed as described above, with the exception that only post-dose pain behavior testing is reported.
(§4) Intraplantar CFA injection occurred at day 0. Treatment with Compounds 1a, 5a, and 6a occurred at days −2, 1, 3, and 7. At day 8, the rats were terminated and cytokine levels were measured in paw skin and plasma. Tissue from paw bone, joint, and muscle were obtained for H&E staining and analysis. Cytokine levels in test compound-treated animals were compared to CFA-stimulated animals. Analytes included interleukin 4 (IL-4), tumor necrosis factor alpha (TNF-α) and interferon gamma (IFN-γ). Statistical analysis consisted of 1-way ANOVA followed by Dunnett's multiple comparisons post-test. Mechanical allodynia and thermal hyperalgesia were tested 1 hour post-dosing on days 1, 3, and 7. PWT refers to […] paw withdrawal threshold where a higher value corresponds to a higher pain threshold. PWL refers to […] paw withdrawal latency where a higher value corresponds to a higher pain threshold.

CFA-stimulated rats [2] = assay: CFA inflammatory pain model, thermal hyperalgesia (Hargreaves method); format: in vivo; design: key to Thermal Hyperalgesia, change in sensitivity compared to CFA alone / Thermal Hyperalgesia, significant reduction in pain behavior vs CFA alone: NS = no statistically significant change in sensitivity compared to CFA alone; + = statistically significant change in sensitivity compared to CFA alone, p < 0.05
Procedure: as §1, §2
Thermal hyperalgesia was measured using the Hargreaves method. A temperature ramp was applied to the right hind paw and the paw withdrawal latency (PWL) was recorded as a measure of sensitivity to thermal stimulation. […] Statistical analysis was performed using a 1-way ANOVA with Tukey post-test. A p-value below 0.05 was considered statistically significant.
as §3, §4

CFA-stimulated rats [3] = assay: CFA inflammatory pain model, cytokine expression in paw skin; format: in vivo; design: key to IFN-γ expression in paw skin, change compared to CFA alone / IL-4 expression in paw skin, change compared to CFA alone / TNF-α expression in paw skin, change compared to CFA alone: NS = no statistically significant change in expression compared to CFA alone; + = statistically significant change in expression compared to CFA alone, p < 0.05; conditions: for IFN-γ expression in paw skin, change compared to CFA alone / IL-4 expression in paw skin, change compared to CFA alone / TNF-α expression in paw skin, change compared to CFA alone: day 8
Procedure: as §1, §3, §4

[4] = tested on: THP-1-differentiated macrophages; assay: Pro-inflammatory cytokine expression in LPS-challenged THP-1-differentiated macrophages; format: cell-based, human; design: key to IL-6, significant reduction in culture supernatant vs LPS treatment / TNF-α, significant reduction in culture supernatant vs LPS treatment / IL-1β, significant reduction in culture supernatant vs LPS treatment: “NS” indicates a non-significant reduction in the indicated cytokine; “+” indicates a p value <0.05 in Tukey post test; “++” indicates a p value <0.01 in Tukey post test; conditions: for IL-1β, significant reduction in culture supernatant vs LPS treatment / IL-6, significant reduction in culture supernatant vs LPS treatment / TNF-α, significant reduction in culture supernatant vs LPS treatment: 20 min pre-treatment, 24 hrs LPS
Procedure: Differentiation with PMA causes THP-1 monocyte cells to acquire functional and morphological resemblance to macrophages. LPS interacts with THP-1 differentiated macrophage through the toll-like receptor 4, triggering the inflammatory response and stimulating pro-inflammatory cytokine release and eventually leading to cellular death. Compounds were tested to determine their anti-inflammatory effects on LPS-challenged macrophage cultures. THP-1-differentiated macrophages were treated with test compounds for 20 minutes, followed by 24 hrs of LPS challenge. Culture supernatants were then collected to analyzed for the presence of pro-inflammatory cytokines: […], interleukin 6 (IL-6) and tumor necrosis factor α (TNF-α).
Cytokine quantification in cell culture supernatants was accomplished by HTRF kits to assess levels of IL-1β (Human IL-1β kit, #62HIL1BPEG, Cisbio) and IL-6 (Human IL-6 kit, 62HIL06PET, Cisbio), and by ELISA to determine the levels of TNF-α (Human TNF-α ELISA kit, KHC3011, ThermoFisher).
Data analysis was performed via 1-way ANOVA with Tukey post-test compared to LPS treatment cultures using Prism statistical software (GraphPad). Tabular data indicates significance of reduction in culture supernatants for the indicated analyte at the indicated doses.

CFA-stimulated rats [5] = assay: CFA inflammatory pain model, thermal hyperalgesia (Hargreaves method); format: in vivo; conditions: Day 5, 1 hour pre-dosing; data not shown
[6] = 2.5 mg/kg PO, Day 1, 1 h post-dose
[7] = 2.5 mg/kg PO, Day 3, 1 h post-dose
[8] = 2.5 mg/kg PO, Day 7, 1 h post-dose
[9] = 10 mg/kg PO, Day 1, 1 h post-dose
[10] = 10 mg/kg PO, Day 3, 1 h post-dose
[11] = 10 mg/kg PO, Day 7, 1 h post-dose

CCC(C)CN1CC2N(Cc3ccc(OC(F)F)cc3)CCC(=O)N2[C@@H](C)C1=O (some centres unmarked) [Compound 6a]
Mechanical Allodynia, significant reduction in pain behavior vs CFA alone (CFA-stimulated rats [1]; [6]): NS | Mechanical Allodynia, significant reduction in pain behavior vs CFA alone (CFA-stimulated rats [1]; [7]): NS | Mechanical Allodynia, significant reduction in pain behavior vs CFA alone (CFA-stimulated rats [1]; [8]): NS | Mechanical Allodynia, significant reduction in pain behavior vs CFA alone (CFA-stimulated rats [1]; [9]): NS | Mechanical Allodynia, significant reduction in pain behavior vs CFA alone (CFA-stimulated rats [1]; [10]): NS | Mechanical Allodynia, significant reduction in pain behavior vs CFA alone (CFA-stimulated rats [1]; [11]): NS | Thermal Hyperalgesia, significant reduction in pain behavior vs CFA alone (CFA-stimulated rats [2]; [6]): NS | Thermal Hyperalgesia, significant reduction in pain behavior vs CFA alone (CFA-stimulated rats [2]; [7]): NS | Thermal Hyperalgesia, significant reduction in pain behavior vs CFA alone (CFA-stimulated rats [2]; [8]): + (+ = statistically significant change in sensitivity compared to CFA alone, p < 0.05) | Thermal Hyperalgesia, significant reduction in pain behavior vs CFA alone (CFA-stimulated rats [2]; [9]): NS | Thermal Hyperalgesia, significant reduction in pain behavior vs CFA alone (CFA-stimulated rats [2]; [10]): NS | Thermal Hyperalgesia, significant reduction in pain behavior vs CFA alone (CFA-stimulated rats [2]; [11]): + (+ = statistically significant change in sensitivity compared to CFA alone, p < 0.05) | study days on which thermal sensitivity was reduced (CFA-stimulated rats [2]; PO, post-dose testing, any tested dose): study day 7 | PWL (paw withdrawal latency) vs CFA+vehicle (CFA-stimulated rats [2]; day 7 at each dose, data not shown): statistically significant increase | IFN-γ expression in paw skin, change compared to CFA alone (CFA-stimulated rats [3]; 2.5 mg/kg PO): NS | IL-4 expression in paw skin, change compared to CFA alone (CFA-stimulated rats [3]; 2.5 mg/kg PO): + (+ = statistically significant change in expression compared to CFA alone, p < 0.05) | TNF-α expression in paw skin, change compared to CFA alone (CFA-stimulated rats [3]; 2.5 mg/kg PO): + (+ = statistically significant change in expression compared to CFA alone, p < 0.05) | IFN-γ expression in paw skin, change compared to CFA alone (CFA-stimulated rats [3]; 10 mg/kg PO): NS | IL-4 expression in paw skin, change compared to CFA alone (CFA-stimulated rats [3]; 10 mg/kg PO): NS | TNF-α expression in paw skin, change compared to CFA alone (CFA-stimulated rats [3]; 10 mg/kg PO): NS | IFN-γ expression in paw skin (CFA-stimulated rats [3]; both tested doses): no effect | IL-1β, significant reduction in culture supernatant vs LPS treatment ([4]; 0.1 nM): NS | IL-6, significant reduction in culture supernatant vs LPS treatment ([4]; 0.1 nM): NS | TNF-α, significant reduction in culture supernatant vs LPS treatment ([4]; 0.1 nM): NS | IL-1β, significant reduction in culture supernatant vs LPS treatment ([4]; 10 nM): NS | IL-6, significant reduction in culture supernatant vs LPS treatment ([4]; 10 nM): NS | TNF-α, significant reduction in culture supernatant vs LPS treatment ([4]; 10 nM): NS | IL-1β, significant reduction in culture supernatant vs LPS treatment ([4]; 1000 nM): + (“+” indicates a p value <0.05 in Tukey post test) | IL-6, significant reduction in culture supernatant vs LPS treatment ([4]; 1000 nM): NS | TNF-α, significant reduction in culture supernatant vs LPS treatment ([4]; 1000 nM): + (“+” indicates a p value <0.05 in Tukey post test) | expression of IL-1β and TNF-α ([4]; at at least one tested dose): significantly reduced | PWL (paw withdrawal latency) (CFA-stimulated rats [5]): statistically significant increase
